Laboratory results: PubChem BioAssay (NCI)
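Test compounds were applied to cells in 96-well plates for 48 hours at 5 doses. At the GI50, growth is halved. TGI marks complete inhibition of growth.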

Assays:
Assay in all cases: NCI-60 cell line screen, 48 h
[1] = test system: SK-MEL-5 melanoma
[2] = test system: SN12C renal
[3] = test system: HCT-15 colon
[4] = test system: COLO 205 colon
[5] = test system: SR leukemia
[6] = test system: K-562 leukemia
[7] = test system: EKVX NSCLC
[8] = test system: SNB-78 CNS
[9] = test system: UO-31 renal
[10] = test system: CAKI-1 renal
[11] = test system: ACHN renal
[12] = test system: HCC-2998 colon
[13] = test system: SNB-19 CNS
[14] = test system: RPMI-8226 leukemia
[15] = test system: DMS 273 small cell lung
[16] = test system: SF-295 CNS
[17] = test system: IGROV1 ovarian
[18] = test system: SF-268 CNS
[19] = test system: KM20L2 colon
[20] = test system: HCT-116 colon
[21] = test system: HOP-62 NSCLC
[22] = test system: A498 renal
[23] = test system: SW-620 colon
[24] = test system: HT29 colon
[25] = test system: NCI-H226 lung
[26] = test system: UACC-62 melanoma
[27] = test system: RXF 393 renal
[28] = test system: MOLT-4 leukemia
[29] = test system: SK-OV-3 ovarian
[30] = test system: SNB-75 CNS
[31] = test system: OVCAR-8 ovarian
[32] = test system: LXFL 529 NSCLC
[33] = test system: NCI-H23 lung
[34] = test system: KM12 colon
[35] = test system: OVCAR-3 ovarian
[36] = test system: OVCAR-5 ovarian
[37] = test system: A549 NSCLC
[38] = test system: OVCAR-4 ovarian
[39] = test system: MALME-3M melanoma
[40] = test system: M19-MEL melanoma
[41] = test system: SK-MEL-28 melanoma
[42] = test system: U251 CNS
[43] = test system: LOX IMVI melanoma
[44] = test system: CCRF-CEM leukemia
[45] = test system: 786-0 renal
[46] = test system: HL-60(TB) leukemia
[47] = test system: UACC-257 melanoma
[48] = test system: M14 melanoma
[49] = test system: DMS 114 small cell lung
[50] = test system: SF-539 CNS
[51] = test system: NCI-H460 lung
[52] = test system: XF 498 CNS
[53] = test system: TK-10 renal
[54] = test system: HOP-92 NSCLC
[55] = test system: DLD-1 colon
[56] = test system: HOP-18 NSCLC
[57] = test system: SK-MEL-2 melanoma
[58] = test system: NCI-H522 lung

`COC(=O)C1=Cc2cc(OC)c(OC)cc2[C@H](c2ccc(OC)c(OC)c2)C1C(=O)OC` (some centres undefined) was tested, and the TGI [1] was greater than 100 µM, the TGI [2] was greater than 100 µM and the TGI [3] was greater than 100 µM. The TGI [4] was greater than 100 µM, the TGI [5] was greater than 100 µM and the TGI [6] was greater than 100 µM. For the same compound, the TGI [7] was greater than 100 µM, the TGI [8] was greater than 100 µM and the TGI [9] was greater than 100 µM. It also gave a TGI [10] greater than 100 µM, a TGI [11] greater than 100 µM and a TGI [12] greater than 100 µM. For the same compound, the TGI [13] was greater than 100 µM, the TGI [14] was greater than 100 µM and the TGI [15] was greater than 100 µM. The TGI [16] was greater than 100 µM, the TGI [17] was greater than 100 µM and the TGI [18] was greater than 100 µM. For the same compound, the TGI [19] was greater than 100 µM, the TGI [20] was greater than 100 µM and the TGI [21] was greater than 100 µM. For the same compound, the TGI [22] was greater than 100 µM, the TGI [23] was greater than 100 µM and the TGI [24] was greater than 100 µM. For the same compound, the TGI [25] was greater than 100 µM, the TGI [26] was greater than 100 µM and the TGI [27] was greater than 100 µM. For the same compound, the TGI [28] was greater than 100 µM, the TGI [29] was greater than 100 µM and the TGI [30] was greater than 100 µM. For the same compound, the TGI [31] was greater than 100 µM, the TGI [32] was greater than 100 µM and the TGI [33] was greater than 100 µM. The TGI [34] was greater than 100 µM, the TGI [35] was greater than 100 µM and the TGI [36] was greater than 100 µM. It also gave a TGI [37] greater than 100 µM, a TGI [38] greater than 100 µM and a TGI [39] greater than 100 µM. The TGI [40] was greater than 100 µM, the TGI [41] was greater than 100 µM and the TGI [42] was greater than 100 µM. The TGI [43] was greater than 100 µM, the TGI [44] was greater than 100 µM and the TGI [45] was greater than 100 µM. The TGI [46] was greater than 100 µM, the TGI [47] was greater than 100 µM and the TGI [48] was greater than 100 µM. The TGI [49] was greater than 100 µM, the TGI [50] was greater than 100 µM and the TGI [51] was greater than 100 µM. It also gave a TGI [52] greater than 100 µM, a TGI [53] greater than 100 µM and a TGI [54] greater than 100 µM.
In the case of `NC1=NN(c2ccccc2)C(=O)C1/C(=N\NC(=O)c1cc2ccccc2cc1O)C(=O)Nc1cccc(C(F)(F)F)c1` (centres undefined), the TGI [1] is reported as 51.8 µM, the TGI [2] is reported as greater than 100 µM and the TGI [4] is reported as greater than 100 µM. The TGI [7] was greater than 100 µM, the TGI [8] was greater than 100 µM and the TGI [9] was greater than 100 µM. The TGI [11] was greater than 100 µM, the TGI [12] was greater than 100 µM and the TGI [13] was greater than 100 µM. It also gave a TGI [14] greater than 100 µM, a TGI [16] greater than 100 µM and a TGI [17] greater than 100 µM. It also gave a TGI [18] greater than 100 µM, a TGI [19] greater than 100 µM and a TGI [20] of 94.9 µM. It also gave a TGI [55] greater than 100 µM, a TGI [21] greater than 100 µM and a TGI [23] greater than 100 µM. It also gave a TGI [24] greater than 100 µM, a TGI [26] greater than 100 µM and a TGI [27] greater than 100 µM. The TGI [28] was 65.9 µM, the TGI [30] was greater than 100 µM and the TGI [31] was greater than 100 µM. It also gave a TGI [56] greater than 100 µM, a TGI [32] greater than 100 µM and a TGI [57] of 93.8 µM. The TGI [33] was greater than 100 µM, the TGI [34] was greater than 100 µM and the TGI [35] was greater than 100 µM. For the same compound, the TGI [36] was 68.4 µM, the TGI [37] was greater than 100 µM and the TGI [38] was greater than 100 µM. For the same compound, the TGI [39] was greater than 100 µM, the TGI [40] was greater than 100 µM and the TGI [41] was greater than 100 µM. For the same compound, the TGI [42] was greater than 100 µM, the TGI [43] was greater than 100 µM and the TGI [44] was 34.1 µM. The TGI [45] was greater than 100 µM, the TGI [46] was 27.6 µM and the TGI [47] was 71.1 µM. It also gave a TGI [48] greater than 100 µM, a TGI [49] of 83 µM and a TGI [51] greater than 100 µM. It also gave a TGI [52] greater than 100 µM, a TGI [53] greater than 100 µM and a TGI [54] greater than 100 µM.
`COC(=O)C[CH2][Ge]([CH3])([CH3])[S]c1ccccc1` showed a GI50 [1] of 32.6 µM, a TGI [1] greater than 100 µM and a GI50 [2] of 18.3 µM. For the same compound, the TGI [2] was 37.2 µM, the GI50 [3] was 15.4 µM and the TGI [3] was 28.8 µM. For the same compound, the GI50 [4] was 30.4 µM, the TGI [4] was 69.9 µM and the GI50 [6] was 34.8 µM. For the same compound, the TGI [6] was greater than 100 µM, the GI50 [7] was 28.2 µM and the TGI [7] was 86.4 µM. It also gave a GI50 [8] of 59.5 µM, a TGI [8] greater than 100 µM and a GI50 [9] of 15.6 µM. The TGI [9] was 33.1 µM, the GI50 [10] was 40.2 µM and the TGI [10] was 79.1 µM. It also gave a GI50 [11] of 28.6 µM, a TGI [11] of 88.4 µM and a TGI [12] greater than 100 µM. It also gave a GI50 [13] of 32.2 µM, a TGI [13] of 81.8 µM and a GI50 [14] of 22.4 µM. The TGI [14] was 58.1 µM, the GI50 [15] was 42.6 µM and the TGI [15] was greater than 100 µM. It also gave a GI50 [16] of 18 µM, a TGI [16] of 62.3 µM and a GI50 [17] of 1.25 µM. For the same compound, the TGI [17] was 4.72 µM, the GI50 [18] was 18.2 µM and the TGI [18] was 43.7 µM. The GI50 [58] was 10.8 µM, the TGI [58] was 23.2 µM and the GI50 [19] was 38.4 µM. It also gave a TGI [19] greater than 100 µM, a GI50 [20] of 33.4 µM and a TGI [20] greater than 100 µM. It also gave a GI50 [55] of 20.3 µM, a TGI [55] of 42.9 µM and a GI50 [21] of 22.6 µM. For the same compound, the TGI [21] was 65.4 µM, the GI50 [23] was 16.7 µM and the TGI [23] was 31.4 µM. The GI50 [24] was 44.2 µM, the TGI [24] was greater than 100 µM and the GI50 [25] was 27.4 µM. The TGI [25] was greater than 100 µM, the GI50 [26] was 21.9 µM and the TGI [26] was 60.9 µM. It also gave a GI50 [27] of 4.08 µM, a TGI [27] of 23.3 µM and a GI50 [28] of 8.31 µM. It also gave a TGI [28] of 33.5 µM, a GI50 [29] of 23.5 µM and a TGI [29] of 67.8 µM. For the same compound, the GI50 [30] was 31.4 µM, the TGI [30] was greater than 100 µM and the GI50 [31] was 25.2 µM. The TGI [31] was 83.8 µM, the GI50 [56] was greater than 100 µM and the TGI [56] was greater than 100 µM. It also gave a GI50 [32] of 24 µM, a TGI [32] of 81.1 µM and a GI50 [57] of 27.4 µM. It also gave a TGI [57] of 71.8 µM, a GI50 [33] of 43.3 µM and a TGI [33] greater than 100 µM. It also gave a GI50 [34] of 36 µM, a TGI [34] greater than 100 µM and a GI50 [35] of 29.9 µM. For the same compound, the TGI [35] was greater than 100 µM, the GI50 [36] was 29.5 µM and the TGI [36] was greater than 100 µM. For the same compound, the GI50 [37] was 30.6 µM, the TGI [37] was greater than 100 µM and the GI50 [38] was 25.3 µM. It also gave a TGI [38] greater than 100 µM, a GI50 [39] greater than 100 µM and a TGI [39] greater than 100 µM. For the same compound, the GI50 [40] was 36.8 µM, the TGI [40] was greater than 100 µM and the GI50 [41] was 36 µM. The TGI [41] was greater than 100 µM, the GI50 [42] was 17.7 µM and the TGI [42] was 44.1 µM. For the same compound, the GI50 [43] was 12.5 µM, the TGI [43] was 26.2 µM and the GI50 [44] was 5.27 µM. For the same compound, the TGI [44] was 24.3 µM, the GI50 [45] was 21.6 µM and the TGI [45] was 45 µM. It also gave a GI50 [46] of 12.2 µM, a TGI [46] of 31.4 µM and a GI50 [47] of 51.2 µM. It also gave a TGI [47] greater than 100 µM, a GI50 [48] of 36.5 µM and a TGI [48] greater than 100 µM. For the same compound, the GI50 [50] was 21.1 µM, the TGI [50] was 39.8 µM and the GI50 [51] was 16.9 µM. For the same compound, the TGI [51] was 30.6 µM, the GI50 [53] was 55.7 µM and the TGI [53] was greater than 100 µM. For the same compound, the GI50 [54] was 17.7 µM and the TGI [54] was 92.8 µM.
